Results published in patent EP4653437A2 (Innovo Therapeutics Inc., priority 2023, dated 2024).

What was measured:
human 15-PGDH = molecular target: T1, human 15-PGDH (Homo sapiens, UniProt P15428); assay: Evaluation of 15-PGDH inhibitory activity (fluorescence enzyme assay, NAD+/PGE2); type: biochemical; details: human 15-PGDH enzyme, fluorescence Vmax
T1 construct: purchased R&D System 5660-DH
T1 sequence (P15428 1-266): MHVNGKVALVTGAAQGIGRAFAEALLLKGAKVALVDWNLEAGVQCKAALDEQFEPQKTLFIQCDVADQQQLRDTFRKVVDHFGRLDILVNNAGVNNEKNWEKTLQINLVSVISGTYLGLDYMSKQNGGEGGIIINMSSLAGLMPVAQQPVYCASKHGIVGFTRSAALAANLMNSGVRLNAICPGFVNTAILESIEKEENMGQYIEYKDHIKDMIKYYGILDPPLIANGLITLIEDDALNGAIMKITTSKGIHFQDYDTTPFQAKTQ
Protocol: 15-PGDH inhibition activity of Example compounds was measured as follows. 6.7 ng of human 15-PGDH (R&D System# 5660-DH) enzyme (10 µL) was added to a black 96 well plate, 60 µL of buffer (50 mM Tris-HCl, pH 7.5, 0.01% Tween 20) was added, and 10 µL of 200 µM β-Nicotinamide adenine dinucleotide sodium salt (Sigma, Cat# N0632-5G) was added. 10 µL of (10x) compound solution in DMSO was added and reacted for 10 minutes at room temperature.

A549 cells = assay: Measurement of PGE2-increasing activity in A549 cells (IL-1β stimulated, PGE2 quantified in supernatant); type: cell-based; details: Homo sapiens, 24 h; concentration of 1 µM of each compound; IL-1β treated A549 cells; read-out: Increased PGE2 production in A549 cells
Summary of the method: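 PGE2 secreted into the supernatant was measured by immunoassay 24 h after treatment. Before treatment, A549 cells were cultured 24 h in 10% FBS F12K, washed, and placed in serum-free medium containing compound (DMSO 0.1% final) plus or minus IL-1β, incubated at 37 °C, 5% CO2.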

Structure (SMILES)	IC50 (human 15-PGDH)	fold induction at 1 µM (A549 cells)
O=C(c1cccc(-c2cccc3c(C(=O)N4CCCCC4)cnn23)c1)N1CCNCC1 [Example 34, piperazin-1-yl(3-(3-(piperidine-1-carbonyl)pyrazolo[1,5-a]pyridin-7-yl)phenyl)methanone]	≤ 100 nM	> 1.5
CN1CC(NC(=O)c2cncc(-c3cccc4c(C(=O)N5CCCCC5)cnn34)c2)C1 [Example 202, N-(1-methylazetidin-3-yl)-5-[3-(piperidine-1-carbonyl)pyrazolo[1,5-a]pyridin-7-yl]pyridine-3-carboxamide]	≤ 100 nM	> 1.5
Cc1nc(-c2cc(N)cc(-c3cccc4c(C(=O)N5CCCCC5)cnn34)c2)no1 [Example 343, (7-(3-amino-5-(5-methyl-1,2,4-oxadiazol-3-yl)phenyl)pyrazolo[1,5-a]pyridin-3-yl)(piperidin-1-yl)methanone]	≤ 100 nM	> 1.5
COC(=O)c1ncc(-c2cccc3c(C(=O)N4CCCCC4)cnn23)cc1F [Example 244, methyl 3-fluoro-5-[3-(piperidine-1-carbonyl)pyrazolo[1,5-a]pyridin-7-yl]pyridine-2-carboxylate]	≤ 100 nM	< 1.5
O=C(c1cnn2c(-c3cc(Br)cnc3F)cccc12)N1CCCCC1 [Example 265, (7-(5-bromo-2-fluoropyridin-3-yl)pyrazolo[1,5-a]pyridin-3-yl)(piperidin-1-yl)methanone]	≤ 100 nM	> 1.5
N#Cc1ccc(-c2cccc3c(C(=O)N4CCCCC4)cnn23)c(F)c1 [Example 285, 3-fluoro-4-[3-(piperidine-1-carbonyl)pyrazolo[1,5-a]pyridin-7-yl]benzonitrile]	≤ 100 nM	> 1.5
O=C1NCc2ccc(-c3cccc4c(C(=O)N5CCCCC5)cnn34)cc21 [Example 140, 6-(3-(piperidine-1-carbonyl)pyrazolo[1,5-a]pyridin-7-yl)isoindolin-1-one]	≤ 100 nM	> 1.5
O=C(c1cnn2c(NCc3ccc(Cl)cc3)cccc12)N1CCCCC1 [Example 238, [7-[(4-chlorophenyl)methylamino]pyrazolo[1,5-a]pyridin-3-yl]-(1-piperidyl)methanone]	≤ 100 nM	> 1.5
Cc1nc(-c2ccc(-c3cccc4c(C(=O)N5CCCCC5)cnn34)cc2F)no1 [Example 303, [7-[3-fluoro-4-(5-methyl-1,2,4-oxadiazol-3-yl)phenyl]pyrazolo[1,5-a]pyridin-3-yl]-(1-piperidyl)methanone]	≤ 100 nM	> 1.5
CC(C)NC(=O)c1cccc(-c2cccc3c(C(=O)N4CCCCC4)cnn23)c1 [Example 28, N-isopropyl-3-(3-(piperidine-1-carbonyl)pyrazolo[1,5-a]pyridin-7-yl)benzamide]	≤ 100 nM	> 1.5
O=C(c1ccc(-c2cccc3c(C(=O)N4CCCCC4)cnn23)cn1)N1CC(F)(F)C1 [Example 237, (3,3-difluoroazetidin-1-yl)-[5-[3-(piperidine-1-carbonyl)pyrazolo[1,5-a]pyridin-7-yl]-2-pyridyl]methanone]	≤ 100 nM	> 1.5
O=C(c1cnn2c(-c3ccc([N+](=O)[O-])nc3)cccc12)N1CCCCC1 [Example 16, (7-(6-nitropyridin-3-yl)pyrazolo[1,5-a]pyridin-3-yl)(piperidin-1-yl)methanone]	≤ 100 nM	> 1.5
O=C(NCC1CC1)c1cncc(-c2cccc3c(C(=O)N4CCCCC4)cnn23)c1 [Example 46, N-(cyclopropylmethyl)-5-(3-(piperidine-1-carbonyl)pyrazolo[1,5-a]pyridin-7-yl)nicotinamide]	≤ 100 nM	> 1.5

Further lines, with some results ahead:

IC50 (human 15-PGDH)	Structure (SMILES)	fold induction at 1 µM (A549 cells)
≤ 100 nM	O=C(c1cccc(-c2cccc3c(C(=O)N4CCCCC4)cnn23)c1)N1CCC1 [Example 29, azetidin-1-yl(3-(3-(piperidine-1-carbonyl)pyrazolo[1,5-a]pyridin-7-yl)phenyl)methanone]	> 1.5
≤ 100 nM	O=C(Cc1cccnc1)Nc1ncc(-c2cccc3c(C(=O)N4CCCCC4)cnn23)cc1F [Example 362, N-(3-fluoro-5-(3-(piperidine-1-carbonyl)pyrazolo[1,5-a]pyridin-7-yl)pyridin-2-yl)-2-(pyridin-3-yl)acetamide]	> 1.5
≤ 100 nM	CN1CCc2ccc(-c3cccc4c(C(=O)N5CCCCC5)cnn34)cc2C1=O [Example 132, 2-methyl-7-(3-(piperidine-1-carbonyl)pyrazolo[1,5-a]pyridin-7-yl)-3,4-dihydroisoquinolin-1(2H)-one]	> 1.5
≤ 100 nM	O=C(c1cnn2c(-c3cc(Cl)nc(Cl)c3)cccc12)N1CCCCC1 [Example 282, (7-(2,6-dichloropyridin-4-yl)pyrazolo[1,5-a]pyridin-3-yl)(piperidin-1-yl)methanone]	< 1.5
≤ 100 nM	O=C(c1cncc(-c2cccc3c(C(=O)N4CCCCC4)cnn23)c1)N1CCNCC1 [Example 48, piperazin-1-yl(5-(3-(piperidine-1-carbonyl)pyrazolo[1,5-a]pyridin-7-yl)pyridin-3-yl)methanone]	< 1.5
≤ 100 nM	CCC1CCCN(C(=O)c2cnn3c(-c4ccc5c(c4)C(=O)NC5)cccc23)C1 (centres unmarked) [Example 393, 6-(3-(3-ethylpiperidine-1-carbonyl)pyrazolo[1,5-a]pyridin-7-yl)isoindolin-1-one]	> 1.5
≤ 100 nM	O=C(Cc1ccc(C(F)(F)F)nc1)Nc1ccc(-c2cccc3c(C(=O)N4CCCCC4)cnn23)cn1 [Example 408, N-[5-[3-(piperidine-1-carbonyl)pyrazolo[1,5-a]pyridin-7-yl]-2-pyridyl]-2-[6-(trifluoromethyl)-3-pyridyl]acetamide]	> 1.5
≤ 100 nM	O=C(O)c1ncc(-c2cccc3c(C(=O)N4CCCCC4)cnn23)cc1Cl [Example 258, 3-chloro-5-[3-(piperidine-1-carbonyl)pyrazolo[1,5-a]pyridin-7-yl]pyridine-2-carboxylic acid]	< 1.5
≤ 100 nM	CS(=O)(=O)Nc1ccc(-c2cccc3c(C(=O)N4CCCCC4)cnn23)cn1 [Example 112, N-(5-(3-(piperidine-1-carbonyl)pyrazolo[1,5-a]pyridin-7-yl)pyridin-2-yl)methanesulfonamide]	> 1.5
≤ 100 nM	CC1CCCN(C(=O)c2cnn3c(-c4ccc(F)nc4)cccc23)C1 (centres unmarked) [Example 336, (7-(6-fluoropyridin-3-yl)pyrazolo[1,5-a]pyridin-3-yl)(3-methylpiperidin-1-yl)methanone]	> 1.5
≤ 100 nM	CN1CCN(C(=O)c2ccc(-c3cccc4c(C(=O)N5CCCCC5)cnn34)cc2)CC1 [Example 67, (4-methylpiperazin-1-yl)(4-(3-(piperidine-1-carbonyl)pyrazolo[1,5-a]pyridin-7-yl)phenyl)methanone]	> 1.5
≤ 100 nM	O=C(c1cnn2c(-c3ccc(N4CCCCC4)nc3)cccc12)N1CCCCC1 [Example 110, piperidin-1-yl(7-(6-(piperidin-1-yl)pyridin-3-yl)pyrazolo[1,5-a]pyridin-3-yl)methanone]	< 1.5
≤ 100 nM	COCCCNc1ccc(-c2cccc3c(C(=O)N4CCCCC4)cnn23)cn1 [Example 107, (7-(6-((3-methoxypropyl)amino)pyridin-3-yl)pyrazolo[1,5-a]pyridin-3-yl)(piperidin-1-yl)methanone]	> 1.5
≤ 100 nM	O=C(c1cnn2c(-c3cnc(Cl)nc3)cccc12)N1CCCCC1 [Example 267, (7-(2-chloropyrimidin-5-yl)pyrazolo[1,5-a]pyridin-3-yl)(piperidin-1-yl)methanone]	> 1.5
≤ 100 nM	O=C(c1cnn2c(-c3ccc(N(Cc4ccccc4[N+](=O)[O-])C(=O)c4cccnc4)cc3)cccc12)N1CCCCC1 [Example 340, N-(2-nitrobenzyl)-N-(4-(3-(piperidine-1-carbonyl)pyrazolo|[1,5-a]pyridin-7-yl)phenyl)nicotinamide]	> 1.5
≤ 100 nM	O=C(c1cnn2c(NCCc3ccncc3)cccc12)N1CCCCC1 [Example 149, piperidin-1-yl(7-((2-(pyridin-4-yl)ethyl)amino)pyrazolo[1,5-a]pyridin-3-yl)methanone]	> 1.5
≤ 100 nM	O=C(c1cnn2c(-c3cnc(-c4noc(=O)[nH]4)c(F)c3)cccc12)N1CCCCC1 [Example 247, 3-[3-fluoro-5-[3-(piperidine-1-carbonyl)pyrazolo[1,5-a]pyridin-7-yl]-2-pyridyl]-4H-1,2,4-oxadiazol-5-one]	> 1.5
≤ 100 nM	CC1CCCN(C(=O)c2cnn3c(-c4ccc(N5CCOC5=O)nc4)cccc23)C1 (centres unmarked) [Example 353, 3-(5-(3-(3-methylpiperidine-1-carbonyl)pyrazolo[1,5-a]pyridin-7-yl)pyridin-2-yl)oxazolidin-2-one]	> 1.5
